The text below walks through data of patent publication US20210347736A1, “CRYSTALLINE FORMS OF A FARNESOID X RECEPTOR AGONIST” (Metacrine, Inc., priority 2018, published 2021).

The target of data set [1] is T1, hFXR (Homo sapiens, UniProt Q96RI1).
T1 construct: expressed in transfected cells; host or cells: CV-1 cells
T1 sequence (Q96RI1 1-486): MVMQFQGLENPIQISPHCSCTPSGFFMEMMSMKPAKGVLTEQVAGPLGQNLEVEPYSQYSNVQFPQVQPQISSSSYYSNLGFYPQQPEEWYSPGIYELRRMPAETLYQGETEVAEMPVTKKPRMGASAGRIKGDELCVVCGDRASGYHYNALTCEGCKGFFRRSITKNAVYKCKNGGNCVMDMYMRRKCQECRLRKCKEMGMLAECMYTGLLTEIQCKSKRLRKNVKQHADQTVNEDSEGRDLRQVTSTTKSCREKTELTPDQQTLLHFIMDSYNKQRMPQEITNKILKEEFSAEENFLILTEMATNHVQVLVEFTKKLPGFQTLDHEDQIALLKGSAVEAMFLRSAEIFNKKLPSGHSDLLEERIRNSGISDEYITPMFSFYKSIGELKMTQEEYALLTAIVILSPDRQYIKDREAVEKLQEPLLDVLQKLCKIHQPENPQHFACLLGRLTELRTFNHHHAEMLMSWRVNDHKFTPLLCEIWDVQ
T1 sequence (P19793 1-462 partner): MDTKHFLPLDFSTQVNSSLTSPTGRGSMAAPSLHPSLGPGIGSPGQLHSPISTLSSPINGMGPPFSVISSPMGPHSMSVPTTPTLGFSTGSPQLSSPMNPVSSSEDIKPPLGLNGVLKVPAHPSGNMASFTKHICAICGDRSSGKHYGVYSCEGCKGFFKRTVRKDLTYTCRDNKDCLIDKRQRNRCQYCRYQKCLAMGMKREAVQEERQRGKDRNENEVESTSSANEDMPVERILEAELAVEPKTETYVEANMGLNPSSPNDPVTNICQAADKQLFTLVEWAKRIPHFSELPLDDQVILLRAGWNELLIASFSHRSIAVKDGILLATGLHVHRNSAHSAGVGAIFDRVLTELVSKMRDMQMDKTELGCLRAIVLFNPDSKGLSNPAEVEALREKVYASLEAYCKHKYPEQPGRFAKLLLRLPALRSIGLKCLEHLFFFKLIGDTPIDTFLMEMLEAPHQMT
In words: In Vitro FXR Assay (TK hFXR luciferase reporter in transfected CV-1 cells). The settings on record: CV-1 cells transfected with hFXR, hRXR, TK-ECRE-luc; 18 hrs incubation; luminescence. The format is cell-based. On the procedure: CV-1 cells were seeded at a density of 2,000,000 cells in a T175 flask with DMEM+10% charcoal double-stripped FBS and incubated at 37° C. in 5% CO2 for 18 h (O/N).
After 18 h of incubation, the medium in the T175 flask was changed with fresh DMEM+10% charcoal super-stripped serum. In a polypropylene tube, 2500 μL OptiMEM (Life Technologies, Cat #31985-062) was combined with expression plasmids for hFXR, hRXR, TK-ECRE-luc and pCMX-YFP. The tube was then briefly vortexed and incubated at room temperature for 5 minutes. Transfection reagent (X-tremeGENE HP from Roche, Cat #06 366 236 001) was added to the OptiMEM/plasmid mixture vortexed and incubated at room temperature for 20 minutes. Following incubation, the transfection reagent/DNA mixture complex was added to cells in the T175 flask and the cells were incubated at 37° C. in 5% CO2 for 18 h (O/N).
Compound 1 was serially diluted in DMSO and added to transfected CV-1 cells. The cells were then incubated for 18 hrs. The next day cells were lysed and examined for luminescence.

A short description of data set [2]: Gravimetric Vapor Sorption (GVS). The format is physicochemical. On the procedure: Sorption isotherms were obtained using a SMS DVS Intrinsic moisture sorption analyser, controlled by DVS Intrinsic Control software v1.0.1.2 (or v1.0.1.3). The sample temperature was maintained at 25° C. by the instrument controls. The humidity was controlled by mixing streams of dry and wet nitrogen, with a total flow rate of 200 ml/min The relative humidity was measured by a calibrated Rotronic probe (dynamic range of 1.0-100% RH), located near the sample. The weight change, (mass relaxation) of the sample as a function of % RH was constantly monitored by the microbalance (accuracy ±0.005 mg).
Typically 5-20 mg of sample was placed in a tared mesh stainless steel basket under ambient conditions. The sample was loaded and unloaded at 40% RH and 25° C. (typical room conditions). A moisture sorption isotherm was performed as outlined below (2 scans giving 1 complete cycle). The standard isotherm was performed at 25° C. at 10% RH intervals over a 0-90% RH range. Data analysis was carried out using Microsoft Excel using DVS Analysis Suite v6.2 (or v6.1 or v6.0).
The sample was recovered after completion of the isotherm and re-analysed by XRPD.

Data set [3] is described as follows: Storage stability of Form 1 for 7 days at elevated humidity (HPLC purity, XRPD). The format is physicochemical. On the procedure: X-Ray Powder Diffraction patterns were collected on a Bruker D8 diffractometer using Cu Kα radiation (40 kV, 40 mA), 0-20 goniometer, and divergence of V4 and receiving slits, a Ge monochromator and a Lynxeye detector. The instrument was performance checked using a certified Corundum standard (NIST 1976). The software used for data collection was Diffrac Plus XRD Commander v2.6.1 and the data were analysed and presented using Diffrac Plus EVA v15.0.0.0.
Samples were run under ambient conditions as flat plate specimens using powder as received. The sample was gently packed into a cavity cut into polished, zero-background (510) silicon wafer. The sample was rotated in its own plane during analysis. The parameters for data collection were: angular range, 2 to 42° 2θ; step size, 0.05° 2θ; collection time, 0.5 s/step.
Purity analysis was performed on an Agilent HP1100 series system equipped with a diode array detector and using ChemStation software vB.04.03 using the method detailed in Table 4 below:
Further, Form 1 of Compound 1 was unchanged by XRPD after 7 days at 25° C. and 97% RH (see FIG. 6, trace (b)).
Further, Form 1 of Compound 1 was unchanged by XRPD after 7 days at 40° C. and 75% RH (see FIG. 6, trace (c)).

Where [4] appears, read: after 7 days at 25° C. and 97% RH.
[5] abbreviates: after 7 days at 40° C. and 75% RH.

Structures are written as SMILES. “Also recorded” adds a separate entry of the source. Bounds are passed on as bounds.

One may read the EC50 as the concentration at which the effect is half-maximal. High values mean a need for much substance, low ones an effect from little substance. Molecule `COc1ccc([C@H]2CC[C@H](CN(c3cccc(-c4cnn(C5CC5)c4)c3)C(=O)[C@H]3CC[C@H](O)CC3)CC2)cc1C` [Compound 1, trans-N-(3-(1-cyclopropyl-1H-pyrazol-4-yl)phenyl)-4-hydroxy-N-((trans-4-(4-methoxy-3-methylphenyl)cyclohexyl)methyl)cyclohexanecarboxamide] returned an EC50 in data set [1] of at most 250 nM.

Turning to `COc1ccc([C@H]2CC[C@H](CN(c3cccc(-c4cnn(C5CC5)c4)c3)C(=O)[C@H]3CC[C@H](O)CC3)CC2)cc1C` [Form 1 of Compound 1, trans-N-(3-(1-cyclopropyl-1H-pyrazol-4-yl)phenyl)-4-hydroxy-N-((trans-4-(4-methoxy-3-methylphenyl)cyclohexyl)methyl)cyclohexanecarboxamide], the “Post-GVS analysis by XRPD” value in data set [2] (after GVS) is “no change”. For the same molecule, in data set [2] (between 0-90% RH, 25° C.), the “moisture uptake by GVS” value is listed as 0.02%. The “hygroscopicity / moisture uptake by GVS (in words)” value in data set [2] (summary statement) is given as “non-hygroscopic; also recorded: No significant moisture uptake”. The “HPLC purity after storage” value in data set [3] (setting [4]) is 99.40 % AUC; in data set [3] (setting [5]), 99.48 % AUC. In addition, the “change by XRPD after storage” value in data set [3] (setting [4]) and in data set [3] (setting [5]) was “unchanged; also recorded: no changes” throughout.
